Experimental data from patent US8865704B2, “Wnt pathway antagonists” (Siena Biotech S.p.A., priority 2009, dated 2014).

Tested on: Wnt/β-catenin pathway
Assay: Wnt reporter assay (TCF-Luciferase, Firefly) in DBTRG-05MG cells
Format: cell-based
Settings: Homo sapiens, 24 hours after compound addition
Experimental: TCF-Luciferase: Three copies of a 4×TCF responsive elements were cloned into the pcDNA3.1/Zeo(+) vector (Invitrogen) after deletion of the constitutive CMV promoter and the insertion of the Firefly Luciferase from Promega (phFL-TK) to measure the activity of the Wnt/β-catenin pathway. The resulting plasmid was sequenced for quality control.
Cells were grown in 20 μg/ml Zeocin and 20 μg/ml Zeocin plus 30 μg/ml Hygromicin respectively. The cells were plated at a density of 6500 cells/well in poly-D-lysine pre-treated 96 well-plates.
IC50 determination: 36 hours after plating cells were incubated with 8-points (60 μM-40 μM-20 μM-10 μM-5 μM-1.66 μM-0.55 μM-0.185 μM) dilutions compound (0.6% DMSO (v/v)). Each compound was tested in triplicate in single plate. Luciferase detection was done with Dual-Luciferase Reporter Assay System (Promega). 24 hours after compound addition, media was removed and 30 μl of 1× lysis buffer was added to each well for 30 minutes. To each well 45 μl of Dual-Glo Luciferase reagent (Promega) were added and after 1 second delay Luciferase was detected for 1 second using Mithras LB940 instrument. After Firefly luciferase quantification 45 μl of Dual Stop & Glo reagent (Promega) were added to each well and Firefly Renilla was detected using the same parameters described before.
Data were expressed as % of control for Firefly and Renilla luciferase independently; values were calculated using XLFit version 4.2, with a four parameters sigmoid function (XLFit model 205).

| Compound | IC50 |
| --- | --- |
| Cn1c(=O)n(C[C@H]2CC[C@H](C(=O)N3CCN(c4ccccc4)CC3)CC2)c(=O)c2ccccc21 [Example 2, trans-1-Methyl-3-[4-(4-phenyl-piperazine-1-carbonyl)-cyclohexylmethyl]-1H-quinazoline-2,4-dione] | 0.3 to 30 µM |
| O=C1CN(C[C@H]2CC[C@H](C(=O)N3CCN(c4ccccn4)CC3)CC2)C(=O)c2ccccc2N1 [Example 13, 4-[trans-4-(4-pyridin-2-yl-piperazine-1-carbonyl)-cyclohexylmethyl]-3,4-dihydro-1H-benzo[e][1,4]diazepine-2,5-dione] | 0.3 to 30 µM |
| CN1C(=O)CN(C[C@H]2CC[C@H](C(=O)N3CCN(c4ccccn4)CC3)CC2)C(=O)c2ccccc21 [Example 14, 1-Methyl-4-[trans-4-(4-pyridin-2-yl-piperazine-1-carbonyl)-cyclohexylmethyl]-3,4-dihydro-1H-benzo[e][1,4]diazepine-2,5-dione] | 0.3 to 30 µM |
| O=C1Nc2ccccc2CCN1C[C@H]1CC[C@H](C(=O)N2CCN(c3ccccn3)CC2)CC1 [Example 16, 3-[trans-4-(4-pyridin-2-yl-piperazine-1-carbonyl)-cyclohexylmethyl]-1,3,4,5-tetrahydro-benzo[d][1,3]diazepin-2-one] | 0.3 to 30 µM |
| COc1ccc2c(c1)n(C[C@H]1CC[C@H](C(=O)N3CCN(C(C)=O)CC3)CC1)c(=O)n2C [Example 17, 3-[trans-4-(4-Acetyl-piperazine-1-carbonyl)-cyclohexylmethyl]-5-methoxy-1-methyl-1,3-dihydro-benzoimidazol-2-one] | 0.3 to 30 µM |
| O=C(CCC1CCCC1)N1CCN(C(=O)[C@H]2CC[C@H](Cn3c(=O)[nH]c4ccccc4c3=O)CC2)CC1 [Example 32] | 0.3 to 30 µM |
| CC(=O)N1CCN(C(=O)[C@H]2CC[C@H](Cn3c(=O)[nH]c4ccccc4c3=O)CC2)CC1 [Example 33] | 0.3 to 30 µM |
| CC(C)(C)NC(=O)N1CCN(C(=O)[C@H]2CC[C@H](Cn3c(=O)[nH]c4ccccc4c3=O)CC2)CC1 [Example 34] | 0.3 to 30 µM |
| CCCCC(=O)N1CCN(C(=O)[C@H]2CC[C@H](Cn3c(=O)[nH]c4ccccc4c3=O)CC2)CC1 [Example 35] | 0.3 to 30 µM |
| O=C(c1ccno1)N1CCN(C(=O)[C@H]2CC[C@H](Cn3c(=O)[nH]c4ccccc4c3=O)CC2)CC1 [Example 36] | 0.3 to 30 µM |
| COc1ccc(CN2CCN(C(=O)[C@H]3CC[C@H](Cn4c(=O)[nH]c5ccccc5c4=O)CC3)CC2)cc1 [Example 38] | 0.3 to 30 µM |
| COc1cccc(CN2CCN(C(=O)[C@H]3CC[C@H](Cn4c(=O)[nH]c5ccccc5c4=O)CC3)CC2)c1 [Example 39] | 0.3 to 30 µM |
| Cc1ccc(CN2CCN(C(=O)[C@H]3CC[C@H](Cn4c(=O)[nH]c5ccccc5c4=O)CC3)CC2)o1 [Example 40] | 0.3 to 30 µM |
| CC(C)N1CCN(C(=O)[C@H]2CC[C@H](Cn3c(=O)[nH]c4ccccc4c3=O)CC2)CC1 [Example 41] | 0.3 to 30 µM |
| O=C(N1CCCC1)N1CCN(C(=O)[C@H]2CC[C@H](Cn3c(=O)[nH]c4ccccc4c3=O)CC2)CC1 [Example 42] | 0.3 to 30 µM |
| CC(C)N1CCN(C(=O)[C@H]2CC[C@H](Cn3c(=O)[nH]c4ccc(Cl)cc4c3=O)CC2)CC1 [Example 43] | 0.3 to 30 µM |

| Compound | IC50 |
| --- | --- |
| O=C1CC(c2ccccc2)NC(=O)N1C[C@H]1CC[C@H](C(=O)N2CCN(c3ccccc3)CC2)CC1 (stereo partly shown) [Example 44] | 0.3 to 30 µM |
| O=C1Nc2ccccc2CN1C[C@H]1CC[C@H](C(=O)N2CCN(c3ccccc3)CC2)CC1 [Example 45] | 0.3 to 30 µM |
| CN1C(=O)N(C[C@H]2CC[C@H](C(=O)N3CCN(c4ccccc4)CC3)CC2)Cc2ccccc21 [Example 46] | 0.3 to 30 µM |
| O=c1[nH]c2ccccc2c(=O)n1C[C@H]1CC[C@H](C(=O)Nc2ccc3ncsc3c2)CC1 [Example 49] | 0.3 to 30 µM |
| CC(c1ccccc1)N1CCN(C(=O)C2CCC(Cn3c(=O)[nH]c4ccccc4c3=O)CC2)CC1 (stereo not shown) [Example 50] | 0.3 to 30 µM |
| CC(C)C(=O)N1CCN(C(=O)[C@H]2CC[C@H](Cn3c(=O)[nH]c4cccc(Cl)c4c3=O)CC2)CC1 [Example 51] | 0.3 to 30 µM |
| CC(=O)N1CCN(C(=O)[C@H]2CC[C@H](Cn3c(=O)c4ccccc4n(C)c3=O)CC2)CC1 [Example 52] | 0.3 to 30 µM |
| COCC(=O)N1CCN(C(=O)[C@H]2CC[C@H](Cn3c(=O)c4ccccc4n(C)c3=O)CC2)CC1 [Example 53] | 0.3 to 30 µM |
| CC(C)C(=O)N1CCN(C(=O)[C@H]2CC[C@H](Cn3c(=O)[nH]c4cccc(F)c4c3=O)CC2)CC1 [Example 54] | 0.3 to 30 µM |
| COc1cccc2[nH]c(=O)n(C[C@H]3CC[C@H](C(=O)N4CCN(C(=O)C(C)C)CC4)CC3)c(=O)c12 [Example 55] | 0.3 to 30 µM |
| CC(C)C(=O)N1CCN(C(=O)[C@H]2CC[C@H](Cn3c(=O)n(C)c4ccccc43)CC2)CC1 [Example 61] | 0.3 to 30 µM |
| COCC(=O)N1CCN(C(=O)[C@H]2CC[C@H](Cn3c(=O)[nH]c4ccc(Cl)cc4c3=O)CC2)CC1 [Example 62] | 0.3 to 30 µM |
| O=C(C1CC1)N1CCN(C(=O)[C@H]2CC[C@H](Cn3c(=O)[nH]c4ccc(Cl)cc4c3=O)CC2)CC1 [Example 63] | 0.3 to 30 µM |
| CC(C)Cn1c(=O)n(C[C@H]2CC[C@H](C(=O)N3CCN(C(=O)C4CC4)CC3)CC2)c(=O)c2ccccc21 [Example 64] | 0.3 to 30 µM |
| COc1ccc2[nH]c(=O)n(C[C@H]3CC[C@H](C(=O)N4CCN(C(=O)C5CCCC5)CC4)CC3)c(=O)c2c1 [Example 65] | 0.3 to 30 µM |
| CN1C(=O)N(C[C@H]2CC[C@H](C(=O)N3CCN(C(=O)C4CC4)CC3)CC2)Cc2ccccc21 [Example 67] | 0.3 to 30 µM |

Other lines, results leading:

| IC50 | Compound |
| --- | --- |
| 0.3 to 30 µM | O=c1[nH]c2ccccc2c(=O)n1C[C@H]1CC[C@H](C(=O)N2CCN(c3ncccn3)CC2)CC1 [Example 1, trans-3-[4-(4-Pyrimidin-2-yl-piperazine-1-carbonyl)-cyclohexylmethyl]-1H-quinazoline-2,4-dione] |
| 0.3 to 30 µM | O=C(C1CCCO1)N1CCN(C(=O)[C@H]2CC[C@H](Cn3c(=O)[nH]c4ccccc4c3=O)CC2)CC1 (stereo partly shown) [Example 4, 3-{4-[4-(Tetrahydro-furan-2-carbonyl)-piperazine-1-carbonyl]-cyclohexylmethyl}-1H-quinazoline-2,4-dione] |
| 0.3 to 30 µM | CC(C)C(=O)N1CCN(C(=O)[C@H]2CC[C@H](CN3C(=O)CC(c4ccccc4)NC3=O)CC2)CC1 (stereo partly drawn) [Example 6, 3-[trans-4-(4-Isobutyryl-piperazine-1-carbonyl)-cyclohexylmethyl]-6-phenyl-dihydro-pyrimidine-2,4-dione] |
| 0.3 to 30 µM | O=C(C1CC1)N1CCN(C(=O)[C@H]2CC[C@H](CN3Cc4ccccc4NC3=O)CC2)CC1 [Example 7, 3-[trans-4-(4-Cyclopropanecarbonyl-piperazine-1-carbonyl)cyclohexylmethyl]-3,4-dihydro-1H-quinazolin-2-one] |
| 0.3 to 30 µM | COc1ccc2[nH]c(=O)n(C[C@H]3CC[C@H](C(=O)N4CCOCC4)CC3)c2c1 [Example 8, 6-Methoxy-1-[trans-4-(morpholine-4-carbonyl)-cyclohexylmethyl]-1,3-dihydro-benzoimidazol-2-one] |
| 0.3 to 30 µM | COc1ccc2c(c1)n(C[C@H]1CC[C@H](C(=O)N3CCOCC3)CC1)c(=O)n2C [Example 9, 5-Methoxy-1-methyl-3-[trans-4-(morpholine-4-carbonyl)-cyclohexylmethyl]-1,3-dihydro-benzoimidazol-2-one] |
| 0.3 to 30 µM | O=C(C1CC1)N1CCN(C(=O)[C@H]2CC[C@H](Cn3c(=O)[nH]c4ccc(Cl)cc43)CC2)CC1 [Example 11, 6-Chloro-1-[trans-4-(4-cyclopropanecarbonyl-piperazine-1-carbonyl)cyclohexylmethyl]-1,3-dihydro-benzoimidazol-2-one] |
| 0.3 to 30 µM | CC(=O)N1CCN(C(=O)[C@H]2CC[C@H](CN3C(=O)Cc4ccccc4C3=O)CC2)CC1 [Example 12, 2-[trans-4-(4-Acetyl-piperazine-1-carbonyl)-cyclohexylmethyl]-4H-isoquinoline-1,3-dione] |
| 0.3 to 30 µM | CN1C(=O)N(C[C@H]2CC[C@H](C(=O)N3CCN(c4ccccn4)CC3)CC2)C(=O)Cc2ccccc21 [Example 15, 1-Methyl-3-[trans-4-(4-pyridin-2-yl-piperazine-1-carbonyl)-cyclohexylmethyl]-1,5-dihydro-benzo[d][1,3]diazepine-2,4-dione] |
| 0.3 to 30 µM | O=C(C1CCC(Cn2cnc3ccccc3c2=O)CC1)N1CCN(Cc2ccccc2)CC1 (stereo not shown) [Example 19] |
| 0.3 to 30 µM | O=C(C1CCC(Cn2c(=O)[nH]c3ccccc3c2=O)CC1)N1CCOCC1 (stereo not shown) [Example 22] |
| 0.3 to 30 µM | O=C(Nc1cccnc1)C1CCC(Cn2c(=O)[nH]c3ccccc3c2=O)CC1 (stereo not shown) [Example 23] |
| 0.3 to 30 µM | O=c1[nH]c2ccccc2c(=O)n1C[C@H]1CC[C@H](C(=O)N2CCN(Cc3ccccc3)CC2)CC1 [Example 24] |
| 0.3 to 30 µM | O=c1[nH]c2ccc(Cl)cc2c(=O)n1C[C@H]1CC[C@H](C(=O)N2CCN(Cc3ccccc3)CC2)CC1 [Example 25] |
| 0.3 to 30 µM | COc1ccc(N2CCN(C(=O)C3CCC(Cn4c(=O)[nH]c5ccccc5c4=O)CC3)CC2)cc1 (stereo not shown) [Example 28] |
| 0.3 to 30 µM | CC(C)C(=O)N1CCN(C(=O)[C@H]2CC[C@H](Cn3c(=O)[nH]c4ccccc4c3=O)CC2)CC1 [Example 30] |
| 0.3 to 30 µM | COCC(=O)N1CCN(C(=O)[C@H]2CC[C@H](Cn3c(=O)[nH]c4ccccc4c3=O)CC2)CC1 [Example 31] |
